Reference: PubChem BioAssay (NCI)
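A five-concentration, 48-hour dose response in 96-well plates underlies each endpoint, interpolated linearly between surrounding concentrations. Here, GI50 denotes the concentration required for 50% inhibition of growth. TGI: total growth inhibition.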

What was measured:
Assay in all cases: NCI anticancer screen, dose series, 48 h
786-0 renal = system: 786-0 renal
A498 renal = system: A498 renal
A549 NSCLC = system: A549 NSCLC
ACHN renal = system: ACHN renal
BT-549 breast = system: BT-549 breast
CAKI-1 renal = system: CAKI-1 renal
CCRF-CEM leukemia = system: CCRF-CEM leukemia
COLO 205 colon = system: COLO 205 colon
DU-145 prostate = system: DU-145 prostate
EKVX NSCLC = system: EKVX NSCLC
HCC-2998 colon = system: HCC-2998 colon
HCT-116 colon = system: HCT-116 colon
HCT-15 colon = system: HCT-15 colon
HL-60(TB) leukemia = system: HL-60(TB) leukemia
HOP-62 NSCLC = system: HOP-62 NSCLC
HOP-92 NSCLC = system: HOP-92 NSCLC
HS 578T breast = system: HS 578T breast
HT29 colon = system: HT29 colon
IGROV1 ovarian = system: IGROV1 ovarian
K-562 leukemia = system: K-562 leukemia
KM12 colon = system: KM12 colon
LOX IMVI melanoma = system: LOX IMVI melanoma
M14 melanoma = system: M14 melanoma
MCF7 breast = system: MCF7 breast
MDA-MB-231 breast = system: MDA-MB-231 breast
MDA-MB-435 = system: MDA-MB-435
MOLT-4 leukemia = system: MOLT-4 leukemia
NCI-H23 lung = system: NCI-H23 lung
NCI-H460 lung = system: NCI-H460 lung
NCI-H522 lung = system: NCI-H522 lung
NCI/ADR-RES ovarian = system: NCI/ADR-RES ovarian
OVCAR-3 ovarian = system: OVCAR-3 ovarian
OVCAR-4 ovarian = system: OVCAR-4 ovarian
OVCAR-5 ovarian = system: OVCAR-5 ovarian
OVCAR-8 ovarian = system: OVCAR-8 ovarian
PC-3 prostate = system: PC-3 prostate
RPMI-8226 leukemia = system: RPMI-8226 leukemia
RXF 393 renal = system: RXF 393 renal
SF-268 CNS = system: SF-268 CNS
SF-295 CNS = system: SF-295 CNS
SF-539 CNS = system: SF-539 CNS
SK-MEL-2 melanoma = system: SK-MEL-2 melanoma
SK-MEL-28 melanoma = system: SK-MEL-28 melanoma
SK-MEL-5 melanoma = system: SK-MEL-5 melanoma
SK-OV-3 ovarian = system: SK-OV-3 ovarian
SN12C renal = system: SN12C renal
SNB-19 CNS = system: SNB-19 CNS
SNB-75 CNS = system: SNB-75 CNS
SR leukemia = system: SR leukemia
SW-620 colon = system: SW-620 colon
TK-10 renal = system: TK-10 renal
U251 CNS = system: U251 CNS
UACC-257 melanoma = system: UACC-257 melanoma
UACC-62 melanoma = system: UACC-62 melanoma
UO-31 renal = system: UO-31 renal

## C=C1C[C@@H]2CC[C@@]34C[C@H]5O[C@H]6[C@@H](O3)[C@H]3O[C@H](CC[C@@H]3O[C@H]6[C@@H]5O4)CC(=O)C[C@@H]3[C@@H](OC)[C@@H](C[C@H](O)CN)O[C@H]3C[C@H]3O[C@@H](CC[C@@H]1O2)C[C@@H](C)C3=C
786-0 renal
  GI50: 0.0761 µM
  TGI: > 100 µM
A498 renal
  GI50: < 0.0119 µM
  TGI: 0.0456 µM
A549 NSCLC
  GI50: < 0.01 µM
  TGI: > 100 µM
ACHN renal
  GI50: 0.158 µM
  TGI: > 100 µM
BT-549 breast
  GI50: < 0.0167 µM
  TGI: > 37.5 µM
CAKI-1 renal
  GI50: 0.0358 µM
  TGI: > 100 µM
CCRF-CEM leukemia
  GI50: < 0.01 µM
  TGI: > 100 µM
COLO 205 colon
  GI50: < 0.01 µM
  TGI: 0.0652 µM
DU-145 prostate
  GI50: < 0.01 µM
  TGI: > 100 µM
EKVX NSCLC
  GI50: < 0.01 µM
  TGI: > 100 µM
HCC-2998 colon
  GI50: < 0.01 µM
  TGI: > 100 µM
HCT-116 colon
  GI50: < 0.01 µM
  TGI: > 100 µM
HCT-15 colon
  GI50: 0.326 µM
  TGI: > 100 µM
HL-60(TB) leukemia
  GI50: < 0.01 µM
  TGI: < 0.0145 µM
HOP-62 NSCLC
  GI50: < 0.0115 µM
  TGI: > 100 µM
HOP-92 NSCLC
  GI50: 0.0734 µM
  TGI: 79.4 µM
HS 578T breast
  GI50: < 0.01 µM
  TGI: > 100 µM
HT29 colon
  GI50: < 0.01 µM
  TGI: > 100 µM
IGROV1 ovarian
  GI50: < 0.01 µM
  TGI: > 100 µM
K-562 leukemia
  GI50: < 0.01 µM
  TGI: > 100 µM
KM12 colon
  GI50: < 0.01 µM
  TGI: > 100 µM
LOX IMVI melanoma
  GI50: < 0.01 µM
  TGI: 0.99 µM
M14 melanoma
  GI50: < 0.0106 µM
  TGI: > 81.9 µM
MCF7 breast
  GI50: < 0.01 µM
  TGI: > 100 µM
MDA-MB-231 breast
  GI50: < 0.01 µM
  TGI: > 53.5 µM
MDA-MB-435
  GI50: < 0.01 µM
  TGI: < 0.01 µM
MOLT-4 leukemia
  GI50: < 0.01 µM
  TGI: > 100 µM
NCI-H23 lung
  GI50: < 0.01 µM
  TGI: > 100 µM
NCI-H460 lung
  GI50: < 0.01 µM
  TGI: > 100 µM
NCI-H522 lung
  GI50: < 0.01 µM
  TGI: 11.8 µM
NCI/ADR-RES ovarian
  GI50: 2.69 µM
  TGI: > 100 µM
OVCAR-3 ovarian
  GI50: < 0.01 µM
  TGI: 0.0219 µM
OVCAR-4 ovarian
  GI50: 1.03 µM
  TGI: > 100 µM
OVCAR-5 ovarian
  GI50: < 0.01 µM
  TGI: > 100 µM
OVCAR-8 ovarian
  GI50: < 0.0153 µM
  TGI: > 100 µM
PC-3 prostate
  GI50: < 0.01 µM
RPMI-8226 leukemia
  GI50: < 0.01 µM
RXF 393 renal
  GI50: < 0.01 µM
  TGI: > 100 µM
SF-268 CNS
  GI50: 0.304 µM
  TGI: > 100 µM
SF-295 CNS
  GI50: < 0.01 µM
  TGI: 0.839 µM
SF-539 CNS
  GI50: < 0.01 µM
  TGI: 0.0166 µM
SK-MEL-2 melanoma
  GI50: < 0.01 µM
  TGI: > 100 µM
SK-MEL-28 melanoma
  TGI: > 100 µM
SK-MEL-5 melanoma
  GI50: < 0.0135 µM
  TGI: 1.11 µM
SK-OV-3 ovarian
  TGI: > 100 µM
SN12C renal
  GI50: < 0.01 µM
  TGI: > 100 µM
SNB-19 CNS
  GI50: < 0.01 µM
  TGI: > 100 µM
SNB-75 CNS
  GI50: < 0.01 µM
  TGI: > 100 µM
SR leukemia
  GI50: < 0.01 µM
  TGI: > 100 µM
SW-620 colon
  GI50: < 0.01 µM
  TGI: > 100 µM
TK-10 renal
  GI50: 13.9 µM
  TGI: > 100 µM
U251 CNS
  GI50: < 0.01 µM
  TGI: > 100 µM
UACC-257 melanoma
  GI50: > 65.8 µM
  TGI: > 100 µM
UACC-62 melanoma
  GI50: < 0.01 µM
  TGI: > 100 µM
UO-31 renal
  GI50: 1.34 µM
  TGI: > 100 µM

## C=C(CNCCc1ccc(O)cc1)[C@@H]1CC[C@]2(COC3CCCCO3)CC[C@]3(C)[C@H](CC[C@@H]4[C@@]5(C)CCC(NCCO)C(C)(C)[C@@H]5CC[C@]43C)[C@@H]12 (stereo partly drawn)
A498 renal
  GI50: 1.33 µM
  TGI: 2.72 µM
ACHN renal
  GI50: 1.64 µM
  TGI: 3.04 µM
CAKI-1 renal
  GI50: 1.52 µM
  TGI: 2.86 µM
DU-145 prostate
  GI50: 1.25 µM
  TGI: 2.58 µM
HCT-15 colon
  GI50: 0.39 µM
  TGI: 1.49 µM
MDA-MB-435
  GI50: 1.35 µM
  TGI: 2.65 µM
NCI-H460 lung
  GI50: 0.339 µM
  TGI: 1.07 µM
OVCAR-3 ovarian
  GI50: 1.28 µM
  TGI: 2.77 µM
OVCAR-4 ovarian
  GI50: 1.39 µM
  TGI: 2.82 µM
OVCAR-5 ovarian
  GI50: 1.67 µM
  TGI: 3.13 µM
SW-620 colon
  GI50: 0.211 µM
  TGI: 0.453 µM
